Measurements taken from patent US20230321123A1, “INHIBITORS OF PSEUDOMONAS AERUGINOSA VIRULENCE FACTOR LasB” (Helmholtz-Zentrum Für Infektionsforschung GmbH, priority 2020, published 2023).
pIC50: −log10 of the molar value.

Assays:
MMP-2 = biological target: T1, MMP-2 (Homo sapiens, UniProt P08253); test: Selectivity against human off-targets: MMP-2; format: biochemical; details: read-out: Inhibition [%] MMP-2
T1 sequence (P08253 110-660): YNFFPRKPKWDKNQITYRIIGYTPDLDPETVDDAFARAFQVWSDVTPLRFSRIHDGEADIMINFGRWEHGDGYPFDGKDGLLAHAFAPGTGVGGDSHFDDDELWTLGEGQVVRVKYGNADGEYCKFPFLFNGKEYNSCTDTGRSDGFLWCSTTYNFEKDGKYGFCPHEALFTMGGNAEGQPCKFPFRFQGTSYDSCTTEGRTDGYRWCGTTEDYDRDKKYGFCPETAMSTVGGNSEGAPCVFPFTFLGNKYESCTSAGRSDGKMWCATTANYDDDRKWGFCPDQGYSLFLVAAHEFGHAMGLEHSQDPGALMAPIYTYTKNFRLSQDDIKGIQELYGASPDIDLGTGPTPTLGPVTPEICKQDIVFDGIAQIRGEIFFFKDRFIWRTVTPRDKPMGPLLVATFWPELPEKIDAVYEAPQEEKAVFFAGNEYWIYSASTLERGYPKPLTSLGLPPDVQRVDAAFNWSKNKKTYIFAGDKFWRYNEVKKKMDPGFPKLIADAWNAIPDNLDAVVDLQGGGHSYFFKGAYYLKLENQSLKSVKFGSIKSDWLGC
From the text: (§1) The inhibition of zinc-containing human enzymes is described frequently for LasB inhibitors and poses a serious difficulty in the development of selective compounds. Particularly, the inhibition of matrix metalloproteases (MMPs) should be avoided. To further investigate this issue, three derivatives (the compounds of examples 1, 5 and 8) have been tested for their selectivity against several human off-targets, including six MMPs, ADAM17 (TACE), HDAC-3 and HDAC-8 (Table 4). The selectivity of the compounds is particularly high for MMPs and HDACs, whereas the inhibition of ADAM17 was considerably stronger.

CYP3A4 = CYP3A4 (Homo sapiens, UniProt P08684); test: CYP inhibition CYP3A4; format: in vitro ADME
From the text: As the compound of example 2 has shown an impressive activity in the in vitro LasB inhibition assay, high selectivity over a broad spectrum of human enzymes and no signs of cytotoxicity in vitro, it has been subjected to a more advanced safety screening (Table 9).

MMP-1 = biological target: T2, MMP-1 (Homo sapiens, UniProt P03956); test: Selectivity against human off-targets: MMP-1; format: biochemical; details: read-out: Inhibition [%] MMP-1
T2 sequence (P03956 100-469): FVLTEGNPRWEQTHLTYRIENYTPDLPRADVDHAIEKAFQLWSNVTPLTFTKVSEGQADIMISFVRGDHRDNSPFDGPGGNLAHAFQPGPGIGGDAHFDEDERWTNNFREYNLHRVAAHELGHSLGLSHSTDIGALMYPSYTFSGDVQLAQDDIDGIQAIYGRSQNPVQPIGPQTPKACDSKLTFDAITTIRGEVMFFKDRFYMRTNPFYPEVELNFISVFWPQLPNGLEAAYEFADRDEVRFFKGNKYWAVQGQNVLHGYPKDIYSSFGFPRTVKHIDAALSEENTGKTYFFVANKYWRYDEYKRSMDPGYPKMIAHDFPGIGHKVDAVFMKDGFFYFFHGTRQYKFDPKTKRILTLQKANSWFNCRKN
From the text: as §1

Sequence of CYP3A4 (P08684 whole entry): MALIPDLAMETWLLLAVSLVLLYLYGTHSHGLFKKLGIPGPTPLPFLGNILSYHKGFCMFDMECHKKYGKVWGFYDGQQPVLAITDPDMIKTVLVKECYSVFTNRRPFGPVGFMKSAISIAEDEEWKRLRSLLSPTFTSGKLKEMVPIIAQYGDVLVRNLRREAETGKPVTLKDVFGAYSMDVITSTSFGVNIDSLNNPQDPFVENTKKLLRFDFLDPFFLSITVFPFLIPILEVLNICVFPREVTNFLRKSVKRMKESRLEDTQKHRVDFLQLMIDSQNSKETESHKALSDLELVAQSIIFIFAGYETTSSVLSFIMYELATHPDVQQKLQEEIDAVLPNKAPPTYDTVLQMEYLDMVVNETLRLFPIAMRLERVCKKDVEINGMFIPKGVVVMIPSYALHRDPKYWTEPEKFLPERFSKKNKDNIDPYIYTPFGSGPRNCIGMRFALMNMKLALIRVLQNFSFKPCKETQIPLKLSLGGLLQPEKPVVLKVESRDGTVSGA

Q: Which results are given for `Cc1ccc(NC(=O)C(S)CC(C)C)cc1` (stereo not drawn) [Example 2, 2-Mercapto-4-methyl-N-(p-tolyl)pentanamide]?
A: inhibition at 100 µM (MMP-2): < 10%; pIC50 (CYP3A4): 4.82; inhibition at 100 µM (MMP-1): < 10%
